Measurements from patent US20220304976A1, “Method of simultaneously treating viral disease caused coronavirus, its variants and mutants using a pharmaceutical micronutrient composition” (priority 2021, published 2022).
Where two headings read alike, the source gives them in different places.

What was measured:
[1] = molecular target: T1, RBD of SARS-CoV-2 spike protein binding to hACE2 receptor (Severe acute respiratory syndrome coronavirus 2, UniProt P0DTC2); experiment: biochemical; conditions: for inhibition at 100 µg/mL: 100 μg/ml, read-out: efficacy in inhibiting RBD binding to hACE2
T1 construct: purchased GenScript

[2] = molecular target: T2, hACE2 receptor (Homo sapiens, UniProt Q9BYF1); type: binding; conditions: for Binging with ACE2 (% of control ± SD): Table 3
T2 construct: purchased GenScript
T2 sequence (Q9BYF1 18-740): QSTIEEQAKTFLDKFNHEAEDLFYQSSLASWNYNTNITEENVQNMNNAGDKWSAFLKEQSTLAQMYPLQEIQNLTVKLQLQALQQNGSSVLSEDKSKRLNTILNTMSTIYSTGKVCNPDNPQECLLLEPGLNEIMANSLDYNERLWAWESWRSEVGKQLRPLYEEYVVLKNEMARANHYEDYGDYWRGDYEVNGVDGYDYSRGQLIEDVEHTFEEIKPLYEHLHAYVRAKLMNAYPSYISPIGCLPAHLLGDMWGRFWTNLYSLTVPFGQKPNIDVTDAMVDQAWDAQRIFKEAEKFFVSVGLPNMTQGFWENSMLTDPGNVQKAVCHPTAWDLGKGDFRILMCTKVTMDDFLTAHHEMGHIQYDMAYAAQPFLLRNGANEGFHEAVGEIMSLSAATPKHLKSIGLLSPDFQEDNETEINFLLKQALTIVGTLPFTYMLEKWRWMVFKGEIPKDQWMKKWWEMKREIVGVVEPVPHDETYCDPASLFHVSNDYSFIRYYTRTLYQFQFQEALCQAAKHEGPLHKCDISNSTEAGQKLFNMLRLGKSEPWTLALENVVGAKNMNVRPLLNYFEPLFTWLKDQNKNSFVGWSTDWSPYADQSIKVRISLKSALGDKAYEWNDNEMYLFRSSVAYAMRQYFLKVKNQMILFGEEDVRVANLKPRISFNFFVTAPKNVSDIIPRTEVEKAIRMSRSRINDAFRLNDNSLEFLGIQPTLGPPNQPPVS

[3] = tested on: SARS-CoV-2 spike protein pseudo-typed virions; type: cell-based
[4] = tested on: SARS-CoV-2 spike protein pseudo-typed virions; type: cell-based; remark: listed apart in the source
[5] = tested on: IL-6 secretion; experiment: Interleukin 6 (IL-6) assay in HSAEpC (ELISA); type: cell-based, human; conditions: LPS 5 mcg/ml
Experimental: Interleukin 6 (IL-6) assay: Human Small Airways Epithelial Cells (HSAEpC) were supplied by ATCC and cultured in Small Airways Epithelial Cells culture medium (ATCC). SAEC cells were seeded in six-well plates covered with collagen at 6 passage and grown to confluent layer. […] After 72 hours incubation conditioned media were collected and IL-6 content was measured using R&D Systems Human IL6 ELISA assay in accordance with the manufacture's protocol. Results were calculated with Microsoft Excel software and presented as a percentage of unsupplemented controls (an average of three repetitions+/−standard deviation).

| Compound | Binging with ACE2 (% of control ± SD) ([2]; tested at 0.1 mg/ml) | other results |
| --- | --- | --- |
| O=c1c(O)cc([C@H]2Oc3cc(O)cc(O)c3C[C@H]2O)cc2c([C@H]3Oc4cc(O)cc(O)c4C[C@H]3O)cc(O)c(O)c12 [Theafalvin] |  | Binding to RBD (% of control ± DS) [1]: 27.3 ± 1.4 % of control; Binging to ACE2 (% of control ± DS) ([2]; Table 4, tested at 0.1 mg/ml): 7.9 ± 1.9 % of control |
| C=C1CC[C@@H]2[C@](C)(CO)[C@H](O)CC[C@@]2(C)[C@@H]1C/C=C1/C(=O)OC[C@H]1O [Andrographolide] |  | Binding to RBD (% of control ± DS) [1]: 22.1 ± 2.5 % of control; Binging to ACE2 (% of control ± DS) ([2]; Table 4, tested at 0.1 mg/ml): 5.6 ± 2.4 % of control |
| Urolithin A | 8.8 ± 1.6 % of control | Binding with RBD (% of control ± SD) [1]: 31.1 ± 4.6 % of control |
| COc1ccc([C@@H]2CC(=O)c3c(O)cc(O)cc3O2)cc1O [Hesperetin] | 4.9 ± 2.7 % of control |  |
| Theaflavine-3′3-digallate |  | concentration from which inhibition of transduction is statistically significant [3]: 10 µg/mL; inhibition of pseudo-typed virion binding to hACE2/A549 (in words) [4]: similarly inhibited binding |
| COc1ccc(Cc2nccc3cc(OC)c(OC)cc23)cc1OC [Papaverine, reference compound] | 6.5 ± 3.7 % of control |  |
| lipopolysaccharide |  | increase of IL-6 secretion [5]: 43% |
| CC1(C)[C@@H](O[C@H]2O[C@H](C(=O)O)[C@@H](O)[C@H](O)[C@H]2O[C@@H]2O[C@H](C(=O)O)[C@@H](O)[C@H](O)[C@H]2O)CC[C@]2(C)[C@H]3C(=O)C=C4[C@@H]5C[C@@](C)(C(=O)O)CC[C@]5(C)CC[C@@]4(C)[C@]3(C)CC[C@@H]12 [Glycyrrhizic acid] |  | Binging to ACE2 (% of control ± DS) ([2]; Table 4, tested at 0.1 mg/ml): 10.1 ± 2.8 % of control |
| Schisandrin | 5.1 ± 2.7 % of control | Binding with RBD (% of control ± SD) [1]: 22.4 ± 3.3 % of control |
| (+)-epigallocatechin gallate |  | Binding to RBD (% of control ± DS) [1]: 87.5 ± 6.8 % of control; Binging to ACE2 (% of control ± DS) ([2]; Table 4, tested at 0.1 mg/ml): 5.9 ± 2.0 % of control |
| O=C(O)[C@H]1O[C@@H](Oc2cc3oc(-c4ccccc4)cc(=O)c3c(O)c2O)[C@H](O)[C@@H](O)[C@@H]1O [Baicalin] | 4.9 ± 1.9 % of control |  |
| O=C(/C=C/c1ccc(O)c(O)c1)O[C@H](Cc1ccc(O)c(O)c1)C(=O)O [Rosmarinic acid] | 7.9 ± 1.8 % of control |  |
| (+)-gallocatechin |  | Binding to RBD (% of control ± DS) [1]: 69.5 ± 2.8 % of control; Binging to ACE2 (% of control ± DS) ([2]; Table 4, tested at 0.1 mg/ml): 5.7 ± 1.6 % of control |
| COc1c(O)cc2oc(-c3ccc(O)cc3)cc(=O)c2c1O [Hispidulin] | 7.4 ± 2.1 % of control |  |
| Hesperidin | 8.3 ± 2.3 % of control | Binding with RBD (% of control ± SD) [1]: 90.3 ± 3.8 % of control |
| O=c1c(O)c(-c2ccc(O)c(O)c2)oc2cc(O)cc(O)c12 [Quercetin] | 7.8 ± 3.3 % of control |  |
| O[C@H]1[C@H](O)[C@@H](O)CN2CC[C@H](O)[C@H]12 [Castanospermine] | 5.5 ± 3.1 % of control |  |
| O=c1c(O)c(-c2ccc(O)cc2O)oc2cc(O)cc(O)c12 [Morin] | 5.6 ± 3.1 % of control |  |
| O=C1C[C@@H](c2ccc(O)cc2)Oc2cc(O)cc(O)c21 [Naringenin] | 8.3 ± 1.6 % of control | Binding with RBD (% of control ± SD) [1]: 20 ± 5.1 % of control |
| D-limonene | 6.4 ± 1.5 % of control | Binding with RBD (% of control ± SD) [1]: 27.2 ± 6.4 % of control |
| COc1ccc2cc3[n+](cc2c1OC)CCc1cc2c(cc1-3)OCO2 [Berberine] | 9.4 ± 2.4 % of control |  |
| L-sulforaphane |  | Binding to RBD (% of control ± DS) [1]: 30.2 ± 3.6 % of control; Binging to ACE2 (% of control ± DS) [2]: 6.7 ± 1.5 % of control |
| O=c1c(O)c(-c2cc(O)c(O)c(O)c2)oc2cc(O)cc(O)c12 [Myricetin] | 5.6 ± 2.1 % of control |  |
| O=C(O)c1cc(O)c(O)c(O)c1 [Gallic acid] | 6.5 ± 1.3 % of control |  |
| C=C(C)[C@@H]1CCC(C)=C[C@H]1c1c(O)cc(CCCCC)cc1O [Cannabidiol, reference compound] | 5.8 ± 2.0 % of control |  |
| O=C(/C=C/c1ccc(O)c(O)c1)O[C@@H]1C[C@](O)(C(=O)O)C[C@@H](O)[C@H]1O [Chlorogenic acid] | 4.7 ± 1.6 % of control |  |

| Compound | Binging with ACE2 (% of control ± SD) ([2]; tested at 0.1 mg/ml) | other results |
| --- | --- | --- |
| O=C1O[C@H]2[C@@H]3OC(=O)c4cc(O)c(O)c(O)c4-c4c(O)c(O)c5oc(=O)c6c(c(O)c(O)c7oc(=O)c4c5c76)-c4c(cc(O)c(O)c4O)C(=O)OC[C@H]3OC(O)[C@@H]2OC(=O)c2cc(O)c(O)c(O)c2-c2c1cc(O)c(O)c2O (mixture of isomers) [Punicalagin] | 5.4 ± 2.3 % of control |  |
| Procyanidin B2 | 5.8 ± 2.7 % of control | Binding with RBD (% of control ± SD) [1]: 31.1 ± 3.6 % of control |
| CC(C)c1cc2c(c(O)c1O)[C@@]1(C(=O)O)CCCC(C)(C)[C@@H]1CC2 [Carnosic acid] | 6.9 ± 4.1 % of control |  |
| O=c1c(O)c(-c2ccc(O)c(O)c2)oc2cc(O)ccc12 [Fisetin] | 6.0 ± 2.4 % of control |  |
| O=c1c(O)c(-c2ccc(O)cc2)oc2cc(O)cc(O)c12 [Kaempferol] | 6.2 ± 2.5 % of control |  |
| COc1cc(/C=C/C(=O)CC(=O)/C=C/c2ccc(O)c(OC)c2)ccc1O [Curcumin] | 4.6 ± 2.4 % of control | affinity in binding to the RBD-spike protein of SARS-CoV-2 (in words) [1]: exhibited the highest affinity; inhibition at 100 µg/mL [1]: 100%; binding to the ACE2 receptor itself (in words) [2]: moderate binding; concentration from which inhibition of transduction is statistically significant [3]: 5.0 µg/mL; inhibition of pseudo-typed virion binding to hACE2/A549 (in words) [4]: similarly inhibited binding |
| Oc1ccc2c(c1)OC[C@]1(O)Cc3cc(O)c(O)cc3[C@H]21 [Brazilin] | 4.6 ± 2.2 % of control | affinity in binding to the RBD-spike protein of SARS-CoV-2 (in words) [1]: exhibited the highest affinity; inhibition at 100 µg/mL [1]: 100%; binding to the ACE2 receptor itself (in words) [2]: neither brazilin, nor theaflavin-3,3′-digallate displayed binding affinity; concentration from which inhibition of transduction is statistically significant [3]: 10 µg/mL; inhibition of pseudo-typed virion binding to hACE2/A549 (in words) [4]: similarly inhibited binding |
| COc1cc(/C=C/c2ccc(O)cc2)cc(OC)c1 [Pterostilbene] | 9.4 ± 2.5 % of control |  |
| O=C(O)CC(O)C(=O)O (stereo not drawn) [Malic acid] | 5.8 ± 1.4 % of control |  |
| O=c1cc(-c2ccc(O)c(O)c2)oc2cc(O)cc(O)c12 [Luteolin] | 4.8 ± 1.6 % of control |  |
| O=C(O)[C@H]1O[C@@H](Oc2cc3oc(-c4ccc(O)cc4)cc(=O)c3c(O)c2O)[C@H](O)[C@@H](O)[C@@H]1O [Scutellarin] | 7.5 ± 1.7 % of control |  |
| Procyanidin B3 | 7.8 ± 2.7 % of control | Binding with RBD (% of control ± SD) [1]: 32.3 ± 3.7 % of control |
| O=c1c(-c2ccc(O)cc2)coc2cc(O)cc(O)c12 [Genistein] | 9.4 ± 2.7 % of control |  |
| (−)-gallocatechin gallate |  | Binding to RBD (% of control ± DS) [1]: 75.4 ± 5.6 % of control; Binging to ACE2 (% of control ± DS) ([2]; Table 4, tested at 0.1 mg/ml): 7.5 ± 1.7 % of control |
| CC(=O)c1c(O)c(C)c(O)c2c1OC1=CC(=O)C(C(C)=O)C(=O)C12C (stereo not drawn) [Usnic acid] | 5.7 ± 1.7 % of control |  |
| Palmatine | 8.5 ± 2.7 % of control | Binding with RBD (% of control ± SD) [1]: 40.4 ± 6.1 % of control |
| Oc1ccc(/C=C/c2cc(O)cc(O)c2)cc1 [Trans-resveratrol] | 5.5 ± 2.4 % of control |  |
| C[C@@H]1O[C@@H](OC[C@H]2O[C@@H](Oc3c(-c4ccc(O)c(O)c4)oc4cc(O)cc(O)c4c3=O)[C@H](O)[C@@H](O)[C@@H]2O)[C@H](O)[C@H](O)[C@H]1O [Rutin] | 4.8 ± 2.0 % of control |  |
| (−)-gallocatechin |  | Binding to RBD (% of control ± DS) [1]: 73.5 ± 6.7 % of control; Binging to ACE2 (% of control ± DS) ([2]; Table 4, tested at 0.1 mg/ml): 3.9 ± 2.3 % of control |
| O=c1cc(-c2ccc(O)cc2)oc2cc(O)cc(O)c12 [Apigenin] | 8.3 ± 1.9 % of control |  |
| C[C@@H]1O[C@@H](O[C@H]2[C@H](Oc3cc(O)c4c(c3)O[C@H](c3ccc(O)cc3)CC4=O)O[C@H](CO)[C@@H](O)[C@@H]2O)[C@H](O)[C@H](O)[C@H]1O [Naringin] | 3.7 ± 1.1 % of control |  |
| O=C(OC[C@H]1O[C@@H](OC(=O)c2cc(O)c(O)c(OC(=O)c3cc(O)c(O)c(O)c3)c2)[C@H](OC(=O)c2cc(O)c(O)c(OC(=O)c3cc(O)c(O)c(O)c3)c2)[C@@H](OC(=O)c2cc(O)c(O)c(OC(=O)c3cc(O)c(O)c(O)c3)c2)[C@@H]1OC(=O)c1cc(O)c(O)c(OC(=O)c2cc(O)c(O)c(O)c2)c1)c1cc(O)c(O)c(OC(=O)c2cc(O)c(O)c(O)c2)c1 [Tannic acid] | 7.2 ± 2.3 % of control |  |
| O=c1cc(-c2ccccc2)oc2cc(O)c(O)c(O)c12 [Baicalein] | 7.4 ± 1.4 % of control |  |
| Oc1cc(O)cc(O)c1 [Phloroglucinol] | 5.9 ± 3.4 % of control |  |
| (−)-catechin gallate |  | Binding to RBD (% of control ± DS) [1]: 37.4 ± 4.7 % of control; Binging to ACE2 (% of control ± DS) ([2]; Table 4, tested at 0.1 mg/ml): 8.6 ± 1.5 % of control |
